Assay results published in the supplement of paper PMC11451515.

Tested on: P12-Ichikawa
Assay: cell viability relative to DMSO control; higher = less cytotoxic
Settings: 48 h
Summary of the method: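 Before seeding, each leukemia line was adapted for at least four passages in each medium. NOMO1 or SEM cells (500 cells/well) and P12-Ichikawa cells (1000 cells/well) went into 1536-well plates at 5 μl, then received library compounds in DMSO by pin dosing across 11 threefold concentrations, 47 μM to 0.79 nM. Readout was CellTiter-Glo One luminescence after 48 h at 37°C, and viability is given as a per-plate percentage of DMSO wells, with cell-free wells as background.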

[1] = HPLM + 10% dialyzed FBS, 0.000781 µM
[2] = HPLM + 10% dialyzed FBS, 0.00234 µM
[3] = HPLM + 10% dialyzed FBS, 0.00702 µM
[4] = HPLM + 10% dialyzed FBS, 0.0211 µM
[5] = HPLM + 10% dialyzed FBS, 0.0632 µM
[6] = HPLM + 10% dialyzed FBS, 0.19 µM
[7] = HPLM + 10% dialyzed FBS, 0.569 µM
[8] = HPLM + 10% dialyzed FBS, 1.71 µM
[9] = HPLM + 10% dialyzed FBS, 5.12 µM
[10] = HPLM + 10% dialyzed FBS, 15.4 µM
[11] = HPLM + 10% dialyzed FBS, 46.1 µM
[12] = RPMI 5 mM glucose + 10% FBS, 0.000781 µM
[13] = RPMI 5 mM glucose + 10% FBS, 0.00234 µM
[14] = RPMI 5 mM glucose + 10% FBS, 0.00702 µM
[15] = RPMI 5 mM glucose + 10% FBS, 0.0211 µM
[16] = RPMI 5 mM glucose + 10% FBS, 0.0632 µM
[17] = RPMI 5 mM glucose + 10% FBS, 0.19 µM
[18] = RPMI 5 mM glucose + 10% FBS, 0.569 µM
[19] = RPMI 5 mM glucose + 10% FBS, 1.71 µM
[20] = RPMI 5 mM glucose + 10% FBS, 5.12 µM
[21] = RPMI 5 mM glucose + 10% FBS, 15.4 µM
[22] = RPMI 5 mM glucose + 10% FBS, 46.1 µM
[23] = RPMI 5 mM glucose + 10% dialyzed FBS, 0.000781 µM
[24] = RPMI 5 mM glucose + 10% dialyzed FBS, 0.00234 µM
[25] = RPMI 5 mM glucose + 10% dialyzed FBS, 0.00702 µM
[26] = RPMI 5 mM glucose + 10% dialyzed FBS, 0.0211 µM
[27] = RPMI 5 mM glucose + 10% dialyzed FBS, 0.0632 µM
[28] = RPMI 5 mM glucose + 10% dialyzed FBS, 0.19 µM
[29] = RPMI 5 mM glucose + 10% dialyzed FBS, 0.569 µM
[30] = RPMI 5 mM glucose + 10% dialyzed FBS, 1.71 µM
[31] = RPMI 5 mM glucose + 10% dialyzed FBS, 5.12 µM
[32] = RPMI 5 mM glucose + 10% dialyzed FBS, 15.4 µM
[33] = RPMI 5 mM glucose + 10% dialyzed FBS, 46.1 µM

Row | SMILES | cell viability [1] [%] | cell viability [2] [%] | cell viability [3] [%] | cell viability [4] [%] | cell viability [5] [%] | cell viability [6] [%] | cell viability [7] [%] | cell viability [8] [%] | cell viability [9] [%] | cell viability [10] [%] | cell viability [11] [%] | cell viability [12] [%] | cell viability [13] [%] | cell viability [14] [%] | cell viability [15] [%] | cell viability [16] [%] | cell viability [17] [%] | cell viability [18] [%] | cell viability [19] [%] | cell viability [20] [%] | cell viability [21] [%] | cell viability [22] [%] | cell viability [23] [%] | cell viability [24] [%] | cell viability [25] [%] | cell viability [26] [%] | cell viability [27] [%] | cell viability [28] [%] | cell viability [29] [%] | cell viability [30] [%] | cell viability [31] [%] | cell viability [32] [%] | cell viability [33] [%]
1 | COc1ccc(-c2ccc3c(N4CCOC[C@@H]4C)nc(N4CCOC[C@@H]4C)nc3n2)cc1CO | 108 | 82.1 | 97 | 82.8 | 83.9 | 77.7 | 75.2 | 74.7 | 64.3 | 37.6 | 6.75 | 93.9 | 58.7 | 80.3 | 77.5 | 66.2 | 59.7 | 60.5 | 58.9 | 54.3 | 42.4 | 18.6 | 103 | 65.6 | 86.6 | 78.7 | 76.1 | 70.8 | 66.5 | 58.3 | 47.2 | 39 | 10.3
2 | Cc1cnc(-c2cc(N3CCN(C(=O)CC[S+](C)(=O)[O-])CC3)ncc2Cl)c(C)c1 | 117 | 116 | 114 | 130 | 124 | 131 | 126 | 122 | 130 | 128 | 128 | – | – | – | – | – | – | – | – | – | – | – | – | – | – | – | – | – | – | – | – | – | –
3 | O=C(NC[C@H](O)CO)c1ccncc1Nc1ccc(I)cc1F | 100 | 112 | 71.4 | 113 | 107 | 105 | 102 | 102 | 97.5 | 91.4 | 87.5 | 101 | 118 | 66.3 | 106 | 96 | 90.4 | 98.6 | 91.4 | 88.7 | 78.6 | 59.6 | 94.9 | 119 | 73.4 | 118 | 99.5 | 109 | 105 | 104 | 90.2 | 96.6 | 76.5
4 | C[C@]1(c2nc3c(C(N)=O)cccc3[nH]2)CCCN1 | 78.7 | 83.9 | 79.3 | 88.8 | 82.2 | 87.2 | 88.4 | 83.2 | 81.3 | 89.5 | 72.4 | 70.9 | 78.2 | 74.9 | 82.6 | 82.9 | 72.9 | 77.7 | 72.4 | 83.3 | 80.4 | 5.38 | 78.1 | 74.3 | 74.3 | 81.4 | 83.5 | 76.9 | 79 | 81.6 | 72.8 | 82.1 | 2.96
5 | CN1CCN(c2ccc([N+](=O)[O-])c3no[n+]([O-])c23)CC1 | 84.1 | 85.5 | 87.8 | 93.8 | 99 | 91.5 | 94.2 | 90.6 | 95.7 | 95.2 | 82.9 | 86.1 | 92.4 | 93.1 | 89 | 94.7 | 97.7 | 93.2 | 88.1 | 95.4 | 86.6 | 91.3 | 91.9 | 91.9 | 91.2 | 92.1 | 98.8 | 91.8 | 93.6 | 89 | 90.2 | 91.1 | 77.8
6 | NC/1=N/C2=C([NH]C=N2)C(=S)N1 | 113 | 122 | 116 | 123 | 123 | 121 | 120 | 119 | 98.2 | 94.2 | 28.9 | 119 | 120 | 124 | 116 | 131 | 130 | 116 | 119 | 96 | 88.1 | 21.2 | 105 | 117 | 124 | 122 | 125 | 112 | 118 | 110 | 79 | 59.7 | 11.1
7 | Cc1cc2c(F)c(Oc3ncnn4cc(OC[C@@H](C)O)c(C)c34)ccc2[nH]1 | 115 | 105 | 102 | 106 | 111 | 106 | 97.2 | 97.5 | 96.9 | 73.9 | 52 | 97.7 | 107 | 101 | 98.1 | 101 | 109 | 104 | 99 | 98.8 | 80.7 | 55.8 | 102 | 100 | 97.3 | 101 | 104 | 102 | 95.7 | 97.8 | 90.1 | 79.3 | 52.3
8 | C[C@@]12C[C@@]3(O)O[C@@H](O1)[C@]1(COC(=O)c4ccccc4)[C@H]3C[C@@]12O[C@@H]1O[C@H](CO)[C@@H](O)[C@H](O)[C@H]1O | 91.3 | 96 | 103 | 100 | 110 | 99.5 | 103 | 108 | 109 | 97.5 | 76.7 | 94.9 | 99.4 | 111 | 111 | 118 | 105 | 108 | 116 | 118 | 113 | 112 | 89.8 | 95.4 | 103 | 110 | 105 | 97.4 | 108 | 104 | 103 | 110 | 101
9 | C=C(C)[C@H]1Cc2c(ccc3c2O[C@@H]2COc4cc(OC)c(OC)cc4[C@@H]2C3=O)O1 | 101 | 108 | 107 | 111 | 95.9 | 118 | 90.6 | 76.5 | 56.1 | 19.7 | 17.7 | 108 | 113 | 104 | 106 | 88.2 | 99.5 | 73.6 | 60.3 | 44.3 | 17.3 | 10.1 | 98.6 | 106 | 110 | 107 | 102 | 95.7 | 76.6 | 69.3 | 59.9 | 34 | 24.1
10 | CC(C)C1=C(O)C=C(O)C(=C1)C/2=N/NC(=O)N2C3=CC4=C(C=C3)[N](C)C=C4 | 119 | 118 | 118 | 117 | 116 | 78.1 | 51.7 | 54.2 | 49 | 47.4 | 45.3 | 119 | 123 | 125 | 112 | 110 | 51 | 41 | 41.3 | 41.8 | 41.6 | 38.6 | 112 | 123 | 127 | 122 | 116 | 48.7 | 45.6 | 42.6 | 44.4 | 41.5 | 39
11 | O=c1[nH]c2ccccc2n1C1CCN(Cc2ccc(-c3nc4cc5nc[nH]c5cc4nc3-c3ccccc3)cc2)CC1 | 109 | 125 | 116 | 125 | 117 | 132 | 115 | 102 | 105 | 109 | 115 | 111 | 102 | 110 | 111 | 115 | 114 | 106 | 85.4 | 104 | 109 | 106 | 121 | 114 | 114 | 121 | 114 | 110 | 105 | 91.1 | 103 | 96 | 107
12 | CN(C)C1=CC=C(C=C1)C(C2=CC=C(C=C2)N(C)C)=C/3\C=C/C(/C=C3)=[N+](C)C | 114 | 107 | 122 | 116 | 115 | 74.1 | 18.5 | 1.52 | 1.65 | 1.9 | 0.24 | 107 | 103 | 102 | 111 | 94.9 | 24.6 | 14.9 | 3.64 | 6.36 | 4.49 | 0.553 | 110 | 104 | 115 | 106 | 94.1 | 34.3 | 19.2 | 10.9 | 12.8 | 3.78 | 0.17
13 | OC1=CC2=C(C(=C1)O)C(=O)\C=C(/O2)C3=CC=CC=C3 | 104 | 102 | 105 | 108 | 110 | 108 | 103 | 110 | 104 | 77.9 | 3.28 | 104 | 104 | 107 | 111 | 115 | 110 | 101 | 107 | 103 | 82.9 | 3.34 | 99.5 | 103 | 102 | 99.9 | 103 | 100 | 114 | 104 | 103 | 84.4 | 4.92
14 | C/C=C(/C)C(=O)O[C@H]1C(C)=C[C@]23C(=O)[C@@H](C=C(CO)[C@@H](O)[C@]12O)[C@H]1[C@@H](C[C@H]3C)C1(C)C | 111 | 122 | 106 | 99.1 | 96.8 | 90.6 | 87 | 97.2 | 97.3 | 79.7 | 81.4 | 122 | 131 | 99.8 | 87.9 | 79.7 | 79.2 | 82.3 | 82.4 | 78.2 | 77.8 | 74.9 | 116 | 122 | 101 | 94.6 | 89.9 | 81.6 | 79 | 82.6 | 86.7 | 81.1 | 70.6
15 | CCC(C)(Oc1ccc(C2(c3ccc(OC(C)(CC)C(=O)O)cc3)CCCCC2)cc1)C(=O)O (stereo not drawn) | 109 | 106 | 103 | 110 | 99.2 | 103 | 103 | 106 | 107 | 94 | 98.4 | 90.9 | 95.6 | 97 | 93.2 | 97.8 | 97.2 | 97.6 | 101 | 100 | 92.1 | 94.1 | 87.5 | 95.5 | 89 | 86.6 | 96.8 | 92 | 82.1 | 91 | 89.1 | 86.7 | 85.3
